Assay results: publication PMC6271870, “Study on the Synthesis, Biological Activity and Spectroscopy of Naphthalimide-Diamine Conjugates” (Molecules, 2014)

What was measured:
HepG2 cells [1] = test: Cell cycle analysis by High Content Screening (PI staining); format: cell-based; details: HepG2, 20 μM, 48 h
Procedure: To reveal the cytotoxic mechanism of compound 7f, we ﬁrst examined its effects on the cell cycle perturbation. The DNA content analysis by High Content Screening (HCS) confirmed that 7f could induce HepG2 cell cycle perturbation (Figure 3).
Exponentially growing HepG2 cells were seeded in 96 well plates ([…]), cultured for 24 h and then treated with different concentrations of compound 7f for 48 h. After incubation for 48 h, cells were washed twice with ice-cold 10% PBS, fixed and permeabilized with ice-cold 70% ethanol at −20 °C overnight. The cells were treated with 50 μg/mL RNase A at room temperature for 30 min after washed with ice-cold PBS, and finally stained with 50 μg/mL propidium iodide (PI) in the dark at 4 °C for 30 min. The distribution of cell cycle phases with different DNA contents was read in image analysis system of high content screening living cells.

[2] = system: human normal hepatocyte QSG-7701; test: MTT assay, QSG-7701 cells; format: cell-based; details: QSG7701, aminoguanidine present, mean ± SD of three determinations, max 50 µM tested
Procedure: (§1) The cytotoxicities of the novel conjugates were assessed in vitro by the MTT assay in the presence of aminoguanidine (an inhibitor of amine oxidase) against three cell lines, human leukemia K562, cancer of colon HCT116 and human normal hepatocyte QSG-7701 [34]. […] Thus, compound 7f was selected for further investigation. Cell lines, K562, 7721 and HCT116 were obtained from American Type Culture Collection (ATCC, Shanghai, China). Cells were cultured in RPMI1640, supplemented with 10% heat-inactivated fetal calf serum (FCS), antibiotics (penicillin, 100 units/mL; streptomycin sulfate, 100 μg/mL) at 37 °C, in an atmosphere of 95% air and 5% CO2 under humidified conditions. Aminoguanidine (1 mM) was added as an inhibitor of amine oxidase derived from FCS and had no effect on the various parameters of the cell measured in this study. In addition, exponentially growing HCT116 or 7721 cells were seeded into 96-well plates at 5000 cells/well and allowed to attach overnight, and then 100 μL of MTT (1 mg/mL) was added. After incubation for 4 h at 37 °C, the MTT solution was removed and the remaining formazan crystals were dissolved with 150 μL DMSO in each well. The absorbance of each well was then read at 570 nm.

cancer of colon HCT116 = test: MTT assay, HCT116 cells; format: cell-based; details: Homo sapiens, HCT-116, aminoguanidine present, mean ± SD of three determinations, max 50 µM tested
Procedure: as §1

human leukemia K562 = test: MTT assay, K562 cells; format: cell-based; details: 48 h, aminoguanidine present, mean ± SD of three determinations, max 50 µM tested
Procedure: as §1, with “Chemosensitivity” for “In addition, exponentially growing HCT116 or 7721 cells were seeded into 96-well plates at 5000 cells/well and allowed to attach overnight, and then 100 μL of MTT (1 mg/mL)”, “assessed using the 3-(4,5-dimethylthiazol-2-yl)-2,5-diphenyltetrazolium bromide (MTT) assay. […]” for “added.”, “purple” for “MTT solution was removed and the remaining”, “crystals (i.e., a reduced form of MTT) generated from viable cells” for “crystals”, “by adding 100” for “with 150”, “10% sodium dodecyl sulphate (SDS)” for “DMSO”

HepG2 cells [3] = test: Apoptosis by Hoechst 33342 staining, laser scanning confocal microscope; format: cell-based; details: HepG2, 20 μM, 48 h, 200 cells counted; control less than five percent
Excerpt: Apoptosis, or namely programmed cell death, can be triggered by several stimuli. Both naphthalimides and polyamine derivatives could trigger cell apoptosis. In order to determine whether the antitumor-proliferative effect of compound 7f was associated with cell apoptosis, the HepG2 cell apoptosis was detected by the staining of DNA with Hoechst 33342, and the apoptotic cells were counted by selecting 200 cells randomly (Figure 4). The apoptotic bodies were observed clearly in 7f-treated groups by laser scanning confocal microscope. 7f could trigger apoptosis in a dose-dependent manner with the 47.0% apoptotic ratio of 7f at 20 μM compared with the less than five percent in the control group. Exponentially growing HepG2 cells were seeded in 96 well plates (6 × 10^4 cells/well) and treated with indicated concentrations of 7f. After incubated for 48 h, cells were washed three times with PBS, and finally stained with 10 μM Hoechst 33342 in the dark at 37 °C for 20 min. They were detected by laser scanning confocal microscope and the apoptotic cells were count by selecting 200 cells randomly.

herring sperm DNA = test: Fluorescence quenching of compound by DNA (Stern-Volmer, binding constant, thermodynamics); details: 7f quenched by DNA
Excerpt: The Stern–Volmer equation is the following: F0/F = 1+ KSVc = 1+ […] where F0 and F are the ﬂuorescence intensities in the absence and presence of quencher (DNA for compound 7f or compound 7f for DNA-EB, respectively), KSV is the Stern-Volmer quenching constant, [c] is the concentration of DNA (or compound 7f), Kq is the biomolecule quenching rate constant and Kq = KSV/τ0. τ0 is the average lifetime of the molecule without any quencher and the ﬂuorescence lifetime of the biopolymer is 10^−8 s. The Stern–Volmer plots of F0/F versus [c] at the three temperatures were shown in Figure 9 and Figure 10, and the calculated KSV and Kq values were presented in Table 2 and Table 3.
When small molecules bind independently to a set of equivalent sites in a macromolecule, the binding constant (Kb) can be determined by the following equation [40, 52]: log[1/c] = log [F/(F0 − F)] + logKb(3) where Kb denotes the binding constant for interaction of naphthalimide–DNA, and F0, F, [c] have the same meanings as in Equation (2).
There are several acting forces between a small organic molecule and biomacromolecules, such as hydrophobic force, hydrogen bond, van der Waals force, electrostatic interactions, etc.
Preparation of sample is the same as that of UV-Vis measurement. Fluorescence wavelengths and intensity areas of samples were measured at following conditions: EX = 345 nm, EM = 355~600 nm temperature: 298, 303 and 310 K.

## Cl.Cl.NCCCCNCCCN1C(=O)c2cccc3cccc(c23)C1=O [Compound 7f, 2-[3-(4-Aminobutylamino)propyl]1H-benz-[de]isoquinoline-1,3(2H)-dione dihydrochloride]
HepG2 cells [1]
  cells in G2/M phase: 49.8%
HepG2 cells [1]; control 52.6%
  cells in G0/G1 phase: 29.7%
[2]
  IC50: 19.7 ± 3.42 µM
Cancer of colon HCT116
  IC50: 5.45 ± 1.71 µM
Human leukemia K562
  IC50: 18.9 ± 1.97 µM
HepG2 cells [3]
  apoptotic ratio: 47.0%
Herring sperm DNA; 298 K
  KSV (Stern-Volmer quenching constant): 5567 L/mol
Herring sperm DNA; 303 K
  KSV (Stern-Volmer quenching constant): 4789 L/mol
Herring sperm DNA; 310 K
  KSV (Stern-Volmer quenching constant): 3651 L/mol
